The results in this text go back to patent publication EP0159254A1, “Derivatives of omega-mercaptopropanamide and their salts, their preparation, their use as medicines and compositions containing them” (ROUSSEL-UCLAF, priority 1984, dated 1985).

The assay addresses T1, enképhalinase (Rattus norvegicus, UniProt P07861).
T1 construct: L'activité de l'enképhalinase est déterminée dans une fraction membranaire de striatum de rat; from tissue; host or cells: rat striatum, particulate (membrane) fraction
T1 sequence (P07861 1-750): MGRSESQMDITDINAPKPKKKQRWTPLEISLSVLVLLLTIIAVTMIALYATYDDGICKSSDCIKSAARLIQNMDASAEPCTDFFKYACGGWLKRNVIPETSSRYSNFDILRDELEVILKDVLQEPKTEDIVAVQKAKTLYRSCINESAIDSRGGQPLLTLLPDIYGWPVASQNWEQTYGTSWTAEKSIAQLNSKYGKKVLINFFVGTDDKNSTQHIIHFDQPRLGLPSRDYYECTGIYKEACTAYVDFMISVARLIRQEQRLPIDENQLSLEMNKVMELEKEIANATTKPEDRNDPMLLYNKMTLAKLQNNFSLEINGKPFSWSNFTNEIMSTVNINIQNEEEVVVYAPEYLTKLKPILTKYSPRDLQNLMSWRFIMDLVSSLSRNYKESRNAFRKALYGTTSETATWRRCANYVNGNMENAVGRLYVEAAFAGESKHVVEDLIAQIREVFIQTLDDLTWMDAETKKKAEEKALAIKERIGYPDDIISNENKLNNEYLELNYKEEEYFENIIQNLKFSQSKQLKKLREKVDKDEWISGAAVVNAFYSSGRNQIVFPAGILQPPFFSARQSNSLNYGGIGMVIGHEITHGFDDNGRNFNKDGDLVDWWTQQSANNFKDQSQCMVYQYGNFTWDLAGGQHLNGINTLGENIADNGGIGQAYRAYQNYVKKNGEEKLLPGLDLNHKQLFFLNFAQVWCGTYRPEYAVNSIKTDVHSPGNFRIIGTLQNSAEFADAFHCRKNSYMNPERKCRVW
The experiment in a line: Enkephalinase assay and determination of the effect of inhibitors (hydrolysis of tritiated leucine-enkephalin). It counts as biochemical. To be noted: membrane fraction of rat striatum; 20 nanomoles tritiated leucine-enkephalin, 1 mM puromycin, TRIS buffer, 15 min at 25°C; read-out: Inhibition de l'enképhalinase CI 50. The procedure:
1) Dosage de l'enképhalinase et détermination de l'effet des inhibiteurs.
L'activité de l'enképhalinase est déterminée dans une fraction membranaire de striatum de rat.
Les striatum sont prélevés sur glace et homogénéisés en tampon TRIS 0.05M pH 7,4 (20 fois le volume). Après une première centrifugation à 1000 g, la fraction particulaire est obtenue à la suite de deux centrifugations de 10 minutes à 20 000 g. Le culot est ensuite mis en suspension dans un tampon TRIS et conservé à 4°C. Le dosage des protéines est effectué selon la méthode au bleu de Comassie.
Après une préincubation de 15 minutes à 25°C, une aliquote de protéines est incubée pendant 15 minutes à 25°C en présence de 20 nanomoles de leucine-enképhaline tritiée (sur le premier acide aminé) préalablement purifiée, d'1 mM de puromycine et du produit à tester en tampon TRIS. La réaction d'hydrolyse est stoppée par addition d'acide chlorhydrique 0,2N et l'incubat subit une déprotéinisation par la chaleur (15 minutes à 95°C).
Les métabolites tritiés obtenus par hydrolyse sont séparés de l'enképhaline par chromatographie sur colonne de porapak Q : ils sont élués avec du tampon TRIS tandis que l'enképhaline est retenue sur la colonne et recueillie ensuite en phase éthanolique.
L'activité des différents produits est exprimée en concentrations inhibitrices 50 %.
`O=C(NC1CCCCC1)C(CS)Cc1ccccc1` (stereo not drawn) [Exemple 2, N-cyclohexyl α-(mercaptométhyl) benzène propanamide]: the IC50 is 100 nM. As for `O=C(NCCc1ccccc1)C(CS)Cc1ccccc1` (stereo not drawn) [Exemple 8, α -(mercaptométhyl) N-(2-phényl éthyl) benzène propanamide], the IC50 is 1000 nM. The figure for `O=C(NCc1ccncc1)C(CS)Cc1ccccc1` (stereo not drawn) [Exemple 24, Chlorhydrate d'α-(mercaptométhyl) N-/(pyridin-4-yl) méthyl/ benzène propanamide] is 80 nM. With `O=C(NCc1ccccn1)C(CS)Cc1ccccc1` (stereo not drawn) [Exemple 26, Chlorhydrate d'α-(mercaptométhyl) N-/(Pyridin-2-yl) méthyl/benzène propanamide], the IC50 is 100 nM. The figure for “Chlorhydrate d'α-(mercaptométhyl) N-/(pyridin-3-yl) méthyl/ benzène propanamide [Exemple 22]” is 80 nM.
